Laboratory results published in US20260070929A1, “METHODS AND COMPOSITIONS FOR MODULATING KRAS(G12D)” (Ranok Therapeutics (Hangzhou) Co. LTD., priority 2022, published 2026).

Key:
KRAS(G12D)/SOS1 = target: T1, KRAS(G12D)/SOS1 (Homo sapiens, UniProt P01116, G12D); assay: KRAS(G12D)/SOS1 homogeneous time-resolved fluorescence (HTRF) assay; type: binding; conditions: absence of GTP; 4° C., 3 hr
T1 construct: purchased Cisbio 63ADK000CB17PEH
Summary of the method: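 HTRF kit assay of compound-blocked KRAS(G12D)–SOS1 interaction, run without GTP. Compounds were tested as 3-fold dilutions from 20 µM to 1.02 nM and incubated with the reaction components for 3 hr at 4 °C, sealed. IC50 was taken as the concentration giving 50% of maximal inhibition.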

[1] = test system: ASPC1 pancreatic adenocarcinoma cells [homozygous G12D]; assay: Cancer cell line proliferation (CellTiter-Glo), ASPC1; type: cell-based; conditions: Homo sapiens, ASPC1, 72 h, 72 hr treatment, read-out: ASPC-1 CTG (EC50)
Summary of the method: (§1)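 EC50 values come from CellTiter-Glo viability measured after 72 hr compound treatment at 37° C./5% CO2 with 0.5% final DMSO. Plating was at 4,000 cells/well with 72 hr growth before dosing, and compounds were serially diluted 3-fold from 20 μM down to 1.02 nM.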

[2] = test system: A-427 lung carcinoma cells [heterozygous G12D]; assay: Cancer cell line proliferation (CellTiter-Glo), A-427; type: cell-based; conditions: Homo sapiens, A-427 cells, 72 hr treatment, read-out: A427 CTG (EC50)
Summary of the method: as §1

[3] = test system: SW1990 pancreatic adenocarcinoma cells [homozygous G12D]; assay: Cancer cell line proliferation (CellTiter-Glo), SW1990; type: cell-based; conditions: Homo sapiens, 72 hr treatment, read-out: SW1990 CTG (EC50)
Method: The following cancer cell lines were employed: AGS gastric carcinoma [heterozygous G12D](ATCC, CRL-1739); A-427 lung carcinoma [heterozygous G12D](ATCC, HTB-53); ASPC1 pancreatic adenocarcinoma [homozygous G12D](ATCC, CRL-1682) and SW1990 pancreatic adenocarcinoma [homozygous G12D](ATCC CRL-2172). Cell lines were cultured essentially according to ATCC recommendations.
AGS, A-427, ASPC1, SW1990, and GP2D cells were plated in 96-well tissue culture plates at 4,000 cells/well and incubated at 37° C./5% CO2 for 72 hr in 100 μl of media. 3-fold serial dilutions of each test compound were prepared ranging from 20 μM to 1.02 nM. Each cell line was then treated with test compounds at various concentrations with a final concentration of 0.5% DMSO/well, and then incubated at 37° C./5% CO2 for 72 hr. 100 µl of CellTiter-Glo® Reagent (Promega Corporation, Madison, WI) was added to each well and processed according manufacturer's protocol. Results were analyzed and EC50 values were calculated in GraphPad 7 software.

[4] = test system: AGS gastric carcinoma cells [heterozygous G12D]; assay: Cancer cell line proliferation (CellTiter-Glo), AGS; type: cell-based; conditions: Homo sapiens, 72 hr treatment, read-out: AGS CTG (EC50)
Summary of the method: as §1

T1 sequence (P01116 1-188 isoform P01116-2 G12D): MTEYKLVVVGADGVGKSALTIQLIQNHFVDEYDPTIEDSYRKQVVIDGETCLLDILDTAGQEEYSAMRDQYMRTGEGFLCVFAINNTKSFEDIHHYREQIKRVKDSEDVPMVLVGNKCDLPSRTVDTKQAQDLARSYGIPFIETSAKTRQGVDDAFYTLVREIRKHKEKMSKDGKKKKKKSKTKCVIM

SMILES | IC50 (KRAS(G12D)/SOS1) [nM] | EC50 [1] [nM] | EC50 [2] [nM] | EC50 [3] [nM] | EC50 [4] [nM]
C#Cc1cccc2cc(O)cc(-c3ncc4c(N5CC6CCC(C5)N6)nc(OCC5(CN6CCC(C(=O)N7CCN(C(=O)C8CCN(Cc9ccc%10c(c9)CN(C(=O)c9cc(C(C)C)c(O)cc9O)C%10)CC8)CC7)CC6)CC5)nc4c3F)c12 [Compound 121] | < 100 | > 1000 | > 1000 | 100 to 1000 | < 100
C#Cc1c(F)ccc2cc(O)cc(-c3nc(OC)c4c(N5CC6CCC(C5)N6)nc(OCC5(CN6CCN(CC7CCN(Cc8ccc(-n9c(C(=O)NC(C)C(F)(F)F)nnc9-c9cc(C(C)C)c(O)cc9O)cc8)CC7)CC6)CC5)nc4c3F)c12 (centres unmarked) [Compound 158] | < 100 | < 100 | < 100 | < 100 | < 100
C#Cc1c(F)ccc2cc(O)cc(-c3ncc4c(N5CC6CCC(C5)N6)nc(OCC5(CN6CCC(C7CCN(Cc8ccc(-n9c(C(=O)NC(C)C(F)(F)F)nnc9-c9cc(C(C)C)c(O)cc9O)cc8)CC7)CC6)CC5)nc4c3F)c12 (centres unmarked) [Compound 162] | < 100 | < 100 | < 100 | < 100 | < 100
C#Cc1c(F)ccc2cc(O)cc(-c3ncc4c(N5CC6CCC(C5)N6)nc(OCC5(CN6CCN(C7CCN(Cc8ccc(-n9c(C(=O)NC(C)C(F)(F)F)nnc9-c9cc(C(C)C)c(O)cc9O)cc8)CC7)CC6)CC5)nc4c3F)c12 (centres unmarked) [Compound 160] | – | < 100 | < 100 | < 100 | < 100
C#Cc1cccc2cc(O)cc(-c3ncc4c(N5CC6CCC(C5)N6)nc(OCC5(CN6CCN(CC7CCN(Cc8ccc(-n9c(C(=O)NCC(F)(F)F)nnc9-c9cc(C(C)C)c(O)cc9O)cc8)CC7)CC6)CC5)nc4c3F)c12 [Compound 127] | < 100 | < 100 | < 100 | < 100 | < 100
C#Cc1cccc2cc(O)cc(-c3ncc4c(N5CC6CCC(C5)N6C(=O)C(F)(F)F)nc(OCC5(CN6CCN(CC7CCN(Cc8ccc9c(c8)CN(C(=O)c8cc(C(C)C)c(O)cc8O)C9)CC7)CC6)CC5)nc4c3F)c12 [Compound 142] | 100 to 1000 | 100 to 1000 | 100 to 1000 | 100 to 1000 | 100 to 1000
C#Cc1cccc2cc(O)cc(-c3ncc4c(N5CC6CCC(C5)N6)nc(OCC5(CN6CCN(CC7CCN(Cc8ccc9c(c8)CN(C(=O)c8cc(C(C)C)c(O)cc8O)C9)CC7)CC6)CC5)nc4c3F)c12 [Compound 117] | – | 100 to 1000 | 100 to 1000 | < 100 | < 100
CCNC(=O)c1nnc(-c2cc(C(C)C)c(O)cc2O)n1-c1ccc(CN2CCC(CN3CCN([C@H]4C[C@@H](COc5nc(N6CC7CCC(C6)N7)c6cnc(-c7cccc(F)c7C)c(F)c6n5)N(C)C4)CC3)CC2)cc1 [Compound 83] | > 1000 | – | < 100 | < 100 | < 100
C#Cc1c(F)ccc2cc(O)cc(-c3ncc4c(N5CC6CCC(C5)N6)nc(OCC5(CN6CCN(CC7CN(Cc8ccc9c(c8)CN(C(=O)c8cc(C(C)C)c(O)cc8O)C9)C7)CC6)CC5)nc4c3F)c12 [Compound 164] | < 100 | 100 to 1000 | – | < 100 | < 100
C#Cc1c(F)ccc2cc(O)cc(-c3ncc4c(N5CC6CCC(C5)N6)nc(OCC5(CN6CCN(CC7CN(Cc8ccc(-n9c(C(=O)NC(C)C(F)(F)F)nnc9-c9cc(C(C)C)c(O)cc9O)cc8)C7)CC6)CC5)nc4c3F)c12 (centres unmarked) [Compound 165] | < 100 | 100 to 1000 | – | < 100 | < 100
C#Cc1cccc2cc(O)cc(-c3ncc4c(N5CC6CCC(C5)N6)nc(OCC5(CN6CCN(CC7CCN(Cc8ccc(-n9c(C(=O)NCC)nnc9-c9cc(C(C)C)c(O)cc9O)cc8)CC7)CC6)CC5)nc4c3F)c12 [Example 2, 4-(4-{[4-({4-[(1-{[(4-{3,8-diazabicyclo[3.2.1]octan-3-yl}-7-(8-ethynyl-3-hydroxynaphthalen-1-yl)-8-fluoropyrido[4,3-d]pyrimidin-2-yl)oxy]methyl}cyclopropyl)methyl]piperazin-1-yl}methyl)piperidin-1-yl]methyl}phenyl)-5-(2,4-dihydroxy-5-isopropylphenyl)-N-ethyl-1,2,4-triazole-3-carboxamide] | – | < 100 | < 100 | < 100 | < 100
C#Cc1c(F)ccc2cc(O)cc(-c3nc(OC)c4c(N5CC6CCC(C5)N6)nc(OCC5(CN6CCOC(CNCc7ccc8c(c7)CN(C(=O)c7cc(C(C)C)c(O)cc7O)C8)C6)CC5)nc4c3F)c12 (centres unmarked) [Compound 192] | > 1000 | – | – | 100 to 1000 | 100 to 1000
C#Cc1c(F)ccc2cc(O)cc(-c3nc(OC)c4c(N5CC6CCC(C5)N6)nc(OCC5(CNCC6CN(Cc7ccc8c(c7)CN(C(=O)c7cc(C(C)C)c(O)cc7O)C8)CCO6)CC5)nc4c3F)c12 (centres unmarked) [Compound 191] | < 100 | – | – | 100 to 1000 | < 100
C#Cc1c(F)ccc2cc(O)cc(-c3nc(OC)c4c(N5CC6CCC(C5)N6)nc(OCC5(CN6CCN(C7CCN(Cc8ccc9c(c8)CN(C(=O)c8cc(O)c(C(C)C)cc8O)C9)CC7)CC6)CC5)nc4c3F)c12 [Compound 170] | < 100 | – | – | < 100 | < 100
C#Cc1c(F)ccc2cc(O)cc(-c3nc(OC)c4c(N5CC6CCC(C5)N6)nc(OCC5(CN6CCN(C7CCN(Cc8ccc(-n9c(C(=O)NC(C)C(F)(F)F)nnc9-c9cc(C(C)C)c(O)cc9O)cc8)CC7)CC6)CC5)nc4c3F)c12 (centres unmarked) [Compound 178] | < 100 | – | – | < 100 | < 100
C#Cc1c(F)ccc2cc(O)cc(-c3nc(OC)c4c(N5CC6CCC(C5)N6)nc(OCC5(CN6CCN(Cc7ccc8c(c7)CN(C(=O)c7cc(C(C)C)c(O)cc7O)C8)CC6)CC5)nc4c3F)c12 [Compound 190] | < 100 | – | – | < 100 | < 100
C#Cc1c(F)ccc2cc(O)cc(-c3ncc4c(N5CC6CCC(C5)N6)nc(OCC5(CN6CCN(C7CN(Cc8ccc9c(c8)CN(C(=O)c8cc(C(C)C)c(O)cc8O)C9)C7)CC6)CC5)nc4c3F)c12 [Compound 177] | < 100 | – | – | < 100 | < 100
C#Cc1c(F)ccc2cc(O)cc(-c3ncc4c(N5CC6CCC(C5)N6)nc(OCC5(CN6CCN(CC7CN(Cc8ccc(-n9c(C(=O)NCC(F)(F)F)nnc9-c9cc(C(C)C)c(O)cc9O)cc8)C7)CC6)CC5)nc4c3F)c12 [Compound 166] | < 100 | < 100 | – | < 100 | < 100
C#Cc1c(F)ccc2cc(O)cc(-c3nc(OC)c4c(N5CC6CCC(C5)N6)nc(OCC5(CN6CCC(C7CCN(Cc8ccc(-n9c(C(=O)NC(C)C(F)(F)F)nnc9-c9cc(C(C)C)c(O)cc9O)cc8)CC7)CC6)CC5)nc4c3F)c12 (centres unmarked) [Compound 182] | < 100 | – | – | < 100 | < 100
C#Cc1c(F)ccc2cc(O)cc(-c3ncc4c(N5CC6CCC(C5)N6)nc(OCC5CN(Cc6ccc7c(c6)CN(C(=O)c6cc(C(C)C)c(O)cc6O)C7)C5)nc4c3F)c12 [Compound 172] | < 100 | – | – | 100 to 1000 | 100 to 1000
C#Cc1c(F)ccc2cc(O)cc(-c3nc(OC)c4c(N5CC6CCC(C5)N6)nc(OCC5(CN6CCN(CC7CCN(Cc8ccc(-n9c(C(=O)NCC(F)(F)F)nnc9-c9cc(C(C)C)c(O)cc9O)cc8)CC7)CC6)CC5)nc4c3F)c12 [Compound 168] | < 100 | – | – | < 100 | < 100
C#Cc1c(F)ccc2cc(O)cc(-c3ncc4c(N5CC6CCC(C5)N6)nc(OCC5(CN6CCC7(CCN(Cc8ccc(-n9c(C(=O)NC(C)C(F)(F)F)nnc9-c9cc(C(C)C)c(O)cc9O)cc8)CC7)CC6)CC5)nc4c3F)c12 (centres unmarked) [Compound 183] | < 100 | – | – | < 100 | < 100
C#Cc1c(F)ccc2cc(O)cc(-c3ncc4c(N5CC6CCC(C5)N6)nc(OCC5CN(C6CN(Cc7ccc8c(c7)CN(C(=O)c7cc(C(C)C)c(O)cc7O)C8)C6)C5)nc4c3F)c12 [Compound 193] | < 100 | – | – | 100 to 1000 | 100 to 1000
C#Cc1c(F)ccc2cc(O)cc(-c3ncc4c(N5CC6CCC(C5)N6)nc(OCC5(CN6CCC7(CCN(Cc8ccc9c(c8)CN(C(=O)c8cc(C(C)C)c(O)cc8O)C9)CC7)CC6)CC5)nc4c3F)c12 [Compound 184] | < 100 | – | – | < 100 | < 100
C#Cc1c(F)ccc2cc(O)cc(-c3ncc4c(N5CC6CNC(C6)C5)nc(OCC5(CN6CCC(C7CCN(Cc8ccc9c(c8)CN(C(=O)c8cc(O)c(C(C)C)cc8O)C9)CC7)CC6)CC5)nc4c3F)c12 (centres unmarked) [Compound 187] | 100 to 1000 | – | – | > 1000 | 100 to 1000
